Measurements taken from patent publication US10544130B2, “Metallo-beta-lactamase inhibitors” (priority 2015, dated 2020).
Structures can show the parent of a compound that is named as a salt.

What follows are compounds tested on Pseudomonas aeruginosa PAO1 MB9798 (efflux+, IMP-1). Conditions: fold difference between efflux + (MB9798) and efflux − (MB9799) strains; imipenem at 2 μg/mL.
How it was run: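 Isogenic PAO1 pair (efflux+ MB9798, efflux− MB9799, both IMP-1) tested by microbroth MIC with fixed imipenem and/or ceftazidime, usually at CLSI breakpoint, plus fixed class A/C inhibitor against AmpC. MBL inhibitor titrated; concentration restoring susceptibility recorded and fold difference between strains taken as efflux extent.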

C[N+](C)(C)CCNS(=O)(=O)c1ccc(-c2cccc3sc(N)nc23)c(-c2nnn[nH]2)c1S(N)(=O)=O [Example 391, 2-({[4-(2-amino-1,3-benzothiazol-4-yl)-2-sulfamoyl-3-(1H-tetrazol-5-yl)phenyl]sulfonyl}amino)-N,N,N-trimethylethanaminium trifluoroacetate] was tested, and the Efflux ratio was 1.00.

Same assay, conditions: ratio MITC95 PA 9798/MITC95 PA 9799; imipenem at 2 μg/mL

First: CN1CC[C@H](CNS(=O)(=O)c2ccc(-c3cccc4sc(N)nc34)c(-c3nnn[nH]3)c2S(N)(=O)=O)C1 [Example 77, 4-(2-amino-1,3-benzothiazol-4-yl)-N1-{[(3S)-1-methylpyrrolidin-3-yl]methyl}-3-(1H-tetrazol-5-yl)benzene-1,2-disulfonamide]
Second: Nc1nc2c(-c3ccc(S(=O)(=O)N[C@H]4CCCNC4)c(S(N)(=O)=O)c3-c3nnn[nH]3)cccc2s1 [Example 67, 4-(2-amino-1,3-benzothiazol-4-yl)-N1-[(3S)-piperidin-3-yl]-3-(1H-tetrazol-5-yl)benzene-1,2-disulfonamide]
The Efflux ratio of the first is lower: 0.50 for the first, 1.00 for the second.

First: CCC1(NS(=O)(=O)c2ccc(-c3cccc4sc(N)nc34)c(-c3nnn[nH]3)c2S(N)(=O)=O)CCNC1 (centres unmarked) [Example 56, 4-(2-amino-1,3-benzothiazol-4-yl)-N1-(3-ethylpyrrolidin-3-yl)-3-(1H-tetrazol-5-yl)benzene-1,2-disulfonamide]
Second: Nc1nc2c(-c3ccc(S(=O)(=O)NCC4(F)CNC4)c(S(N)(=O)=O)c3-c3nnn[nH]3)cccc2s1 [Example 46, 4-(2-amino-1,3-benzothiazol-4-yl)-N^1-[(3-fluoroazetidin-3-yl)methyl]-3-(1H-tetrazol-5-yl)benzene-1,2-disulfonamide]
The Efflux ratio of the first is higher: 1.00 for the first, 0.50 for the second.

Nc1nc2c(-c3ccc(S(=O)(=O)NC4CCNCC4)c(S(N)(=O)=O)c3-c3nnn[nH]3)cccc2s1 [Example 32, 4-(2-amino-1,3-benzothiazol-4-yl)-N1-piperidin-4-yl-3-(1H-tetrazol-5-yl)benzene-1,2-disulfonamide] and Nc1nc2c(-c3ccc(S(=O)(=O)NC4CC5CNC4C5)c(S(N)(=O)=O)c3-c3nnn[nH]3)cccc2s1 (centres unmarked) [Example 88, 4-(2-aminobenzo[d]thiazol-4-yl)-N^1-(2-azabicyclo[2.2.1]heptan-6-yl)-3-(1H-tetrazol-5-yl)benzene-1,2-disulfonamide] are the same in Efflux ratio: 0.50 for the first, 0.50 for the second.

Compared with Nc1ccc(-c2ccc(S(=O)(=O)NC[C@@H](N)CO)c(S(N)(=O)=O)c2-c2nn[nH]n2)cn1 [Example 365, (R)—N1-(2-amino-3-hydroxypropyl)-4-(6-aminopyridin-3-yl)-3-(2H-tetrazol-5-yl) benzene-1,2-disulfonamide], Nc1ncccc1-c1ccc(S(=O)(=O)NC[C@@H](N)CO)c(S(N)(=O)=O)c1-c1nn[nH]n1 [Example 214, (R)-N1-(2-amino-3-hydroxypropyl)-4-(2-aminopyridin-3-yl)-3-(2H-tetrazol-5-yl)benzene-1,2-disulfonamide] is higher in Efflux ratio: 2.00 for the first, 8.00 for the second.

Going from N[C@H](CO)CNS(=O)(=O)c1ccc(-c2cccc3[nH]cnc23)c(-c2nn[nH]n2)c1S(N)(=O)=O [Example 296, (S)—N^1-(2-amino-3-hydroxypropyl)-4-(1H-benzo[d]imidazol-4-yl)-3-(2H-tetrazol-5-yl)benzene-1,2-disulfonamide] to Nc1nc2c(-c3ccc(S(=O)(=O)NCC4CCN4)c(S(N)(=O)=O)c3-c3nn[nH]n3)cccc2[nH]1 (centres unmarked) [Example 207, 4-(2-amino-1H-benzo[d]imidazol-4-yl)-N1-(azetidin-2-ylmethyl)-3-(2H-tetrazol-5-yl)benzene-1,2-disulfonamide], the Efflux ratio rises from 1.00 to 2.00.

Nc1nc2c(-c3ccc(S(=O)(=O)N[C@H]4CN[C@@H](CO)C4)c(S(N)(=O)=O)c3-c3nnn[nH]3)cccc2[nH]1 [Example 173, 4-(2-amino-1H-benzo[d]imidazol-4-yl)-N^1-((3R,5R)-5-(hydroxymethyl)pyrrolidin-3-yl)-3-(1H-tetrazol-5-yl)benzene-1,2-disulfonamide] and Nc1nc2c(-c3ccc(S(=O)(=O)N[C@@H]4CNC[C@@H]4O)c(S(N)(=O)=O)c3-c3nnn[nH]3)cccc2[nH]1 [Example 170, 4-(2-amino-1H-benzo[d]imidazol-4-yl)-N^1-((3R,4S)-4-hydroxypyrrolidin-3-yl)-3-(1H-tetrazol-5-yl)benzene-1,2-disulfonamide] are the same in Efflux ratio: 1.00 for the first, 1.00 for the second.

C[C@H]1NC(=O)O[C@H]1c1ccc(-c2ccc(S(=O)(=O)N[C@@H]3CCNC3)c(S(N)(=O)=O)c2-c2nnn[nH]2)cc1 [Example 141, 4'-((4R,5S)-4-methyl-2-oxooxazolidin-5-yl)-N4-((R)-pyrrolidin-3-yl)-2-(1H-tetrazol-5-yl)-[1,1'-biphenyl]-3,4-disulfonamide] and NS(=O)(=O)c1ccc(-c2ccc(S(=O)(=O)N[C@@H]3CCNC3)c(S(N)(=O)=O)c2-c2nnn[nH]2)cc1 [Example 135, (R)-N4-(pyrrolidin-3-yl)-2-(1H-tetrazol-5-yl)-[1,1′-biphenyl]-3,4,4′-trisulfonamide] are the same in Efflux ratio: 1.00 for the first, 1.00 for the second.

Compared with NCC(CN)NS(=O)(=O)c1ccc(-c2cccc(C3N=NC(N)=N3)c2)c(-c2nn[nH]n2)c1S(N)(=O)=O (centres unmarked) [Example 229, 3′-(5-amino-3H-1,2,4-triazol-3-yl)-N4-(1,3-diaminopropan-2-yl)-2-(2H-tetrazol-5-yl)-[1,1′-biphenyl]-3,4-disulfonamide], NC[C@@H](N)CNS(=O)(=O)c1ccc(-c2cccc(-c3n[nH]c(N)n3)c2)c(-c2nn[nH]n2)c1S(N)(=O)=O [Example 230, (R)-3′-(5-amino-1H-1,2,4-triazol-3-yl)-N4-(2,3-diaminopropyl)-2-(2H-tetrazol-5-yl)-[1,1′-biphenyl]-3,4-disulfonamide] is higher in Efflux ratio: 0.50 for the first, 1.00 for the second.

Going from Nc1nc2c(-c3ccc(S(=O)(=O)NC4CNC4)c(S(N)(=O)=O)c3-c3nn[nH]n3)cccc2s1 [Example 146, 4-(2-aminobenzo[d]thiazol-4-yl)-N1-(azetidin-3-yl)-3-(2H-tetrazol-5-yl)benzene-1,2-disulfonamide] to COC(=O)[C@H]1C[C@@H](NS(=O)(=O)c2ccc(-c3cccc4sc(N)nc34)c(-c3nnn[nH]3)c2S(N)(=O)=O)CN1 [Example 128, Methyl(2R,4R)-4-((4-(2-aminobenzo[d]thiazol-4-yl)-2-sulfamoyl-3-(1H-tetrazol-5-yl)phenyl)sulfonamido)pyrrolidine-2-carboxylate], the Efflux ratio rises from 0.50 to 1.00.

Nc1nc2c(-c3ccc(S(=O)(=O)NCC4(CO)CC4)c(S(N)(=O)=O)c3-c3nnn[nH]3)cccc2s1 [Example 37, 4-(2-amino-1,3-benzothiazol-4-yl)-N1-{[1-(hydroxymethyl)cyclopropyl]methyl}-3-(1H-tetrazol-5-yl)benzene-1,2-disulfonamide] and Nc1nc2c(-c3ccc(S(=O)(=O)NCC4COCCN4)c(S(N)(=O)=O)c3-c3nnn[nH]3)cccc2s1.O=C(O)C(F)(F)F (centres unmarked) [Example 96, 3-((4-(2-aminobenzo[d]thiazol-4-yl)-2-sulfamoyl-3-(1H-tetrazol-5-yl)phenylsulfonamido)methyl)morpholin-4-ium 2,2,2-trifluoroacetate] are the same in Efflux ratio: 1.00 for the first, 1.00 for the second.

First: Cc1ccc(-c2ccc(S(N)(=O)=O)c(S(N)(=O)=O)c2-c2nn[nH]n2)c2nc(N)sc12 [Example 6, 4-(2-amino-7-methylbenzo[d]thiazol-4-yl)-3-(2H-tetrazol-5-yl)benzene-1,2-disulfonamide]
Second: Nc1nc2c(-c3ccc(S(=O)(=O)N4CC[C@@H](F)[C@H](N)C4)c(S(N)(=O)=O)c3-c3nn[nH]n3)cccc2[nH]1 [Example 205, 3-(2-amino-1H-benzo[d]imidazol-4-yl)-6-(((3R,4R)-3-amino-4-fluoropiperidin-1-yl)sulfonyl)-2-(2H-tetrazol-5-yl)benzenesulfonamide]
The Efflux ratio of the first is lower: 1.00 for the first, 8.00 for the second.

First: NCCNS(=O)(=O)c1ccc(-c2ccc3ncn(CCN)c3c2)c(-c2nn[nH]n2)c1S(N)(=O)=O [Example 348, N^1-(2-aminoethyl)-4-(1-(2-aminoethyl)-1H-benzo[d]imidazol-6-yl)-3-(2H-tetrazol-5-yl)benzene-1,2-disulfonamide]
Second: Nc1nc2c(-c3ccc(S(=O)(=O)N[C@H]4CNC[C@@H]4O)c(S(N)(=O)=O)c3-c3nnn[nH]3)cccc2[nH]1 [Example 169, 4-(2-amino-1H-benzo[d]imidazol-4-yl)-N^1-((3S,4S)-4-hydroxypyrrolidin-3-yl)-3-(1H-tetrazol-5-yl)benzene-1,2-disulfonamide]
The Efflux ratio of the first is higher: 4.00 for the first, 1.00 for the second.

Going from NC1CCC(c2ccc(S(N)(=O)=O)c(S(N)(=O)=O)c2-c2nnn[nH]2)CC1 (centres unmarked) [Example 165, 4-(4-aminocyclohexyl)-3-(1H-tetrazol-5-yl)benzene-1,2-disulfonamide] to Nc1nc2c(-c3ccc(S(=O)(=O)N[C@@H]4CNC[C@H]4O)c(S(N)(=O)=O)c3-c3nnn[nH]3)cccc2[nH]1 [Example 171, 4-(2-amino-1H-benzo[d]imidazol-4-yl)-N^1-((3R,4R)-4-hydroxypyrrolidin-3-yl)-3-(1H-tetrazol-5-yl)benzene-1,2-disulfonamide], the Efflux ratio falls from 4.00 to 0.50.

Compared with CNCCCN(C)S(=O)(=O)c1ccc(-c2cccc3sc(N)nc23)c(-c2nnn[nH]2)c1S(N)(=O)=O.O=C(O)C(F)(F)F [Example 93, 3-(4-(2-aminobenzo[d]thiazol-4-yl)-N-methyl-2-sulfamoyl-3-(1H-tetrazol-5-yl)phenylsulfonamido)-N-methylpropan-1-aminium 2,2,2-trifluoroacetate], Nc1nc2c(-c3ccc(S(=O)(=O)N[C@@H](N)c4ccccn4)c(S(N)(=O)=O)c3-c3nnn[nH]3)cccc2s1.O=C(O)C(F)(F)F [Example 99, (R)-(4-(2-aminobenzo[d]thiazol-4-yl)-2-sulfamoyl-3-(1H-tetrazol-5-yl)phenylsulfonamido) (pyridin-2-yl)methanaminium 2,2,2-trifluoroacetate] is higher in Efflux ratio: 1.00 for the first, 8.00 for the second.
